Measured values taken from ChEMBL document CHEMBL4304774, “Bisubstrate Inhibitors of Nicotinamide N-Methyltransferase (NNMT) with Enhanced Activity” (J Med Chem, 2019).
Active and inactive are the calls of the source. The rule behind the calls is not given here.

Test system: HSC-2
Experiment: Antiproliferative activity against human HSC2 cells assessed as reduction in cell viability at 50 uM measured after 48 hrs by MTT assay relative to control
Type: functional

Structure (SMILES) | Activity
Nc1ncnc2c1ncn2[C@@H]1O[C@H](CN(CC[C@H](N)C(=O)O)Cc2ccc3ccccc3c2)[C@@H](O)[C@H]1O | 21%

Test system: HSC-2
Experiment: Antiproliferative activity against human HSC2 cells assessed as reduction in cell viability at 1 to 100 uM measured up to 72 hrs by MTT assay
Type: functional, cell-based

Structure (SMILES) | Activity
Nc1ncnc2c1ncn2[C@@H]1O[C@H](CN(CCC[C@H](N)C(=O)O)Cc2ccc3ccccc3c2)[C@@H](O)[C@H]1O | inactive
NC(=O)c1cccc(CN(CC[C@H](N)C(=O)O)C[C@H]2O[C@@H](n3cnc4c(N)ncnc43)[C@H](O)[C@@H]2O)c1 | inactive
NC(=O)c1cccc(CCN(CCC[C@H](N)C(=O)O)C[C@H]2O[C@@H](n3cnc4c(N)ncnc43)[C@H](O)[C@@H]2O)c1 | inactive

Test system: HSC-2
Experiment: Antiproliferative activity against human HSC2 cells assessed as reduction in cell viability at 100 uM measured after 48 hrs by MTT assay relative to control
Type: functional

Structure (SMILES) | Activity
Nc1ncnc2c1ncn2[C@@H]1O[C@H](CN(CC[C@H](N)C(=O)O)Cc2ccc3ccccc3c2)[C@@H](O)[C@H]1O | 27%

Test system: HSC-2
Experiment: Antiproliferative activity against human HSC2 cells assessed as reduction in cell viability at 100 uM measured after 72 hrs by MTT assay relative to control
Type: functional

Structure (SMILES) | Activity
Nc1ncnc2c1ncn2[C@@H]1O[C@H](CN(CC[C@H](N)C(=O)O)Cc2ccc3ccccc3c2)[C@@H](O)[C@H]1O | 44%

Test system: HSC-2
Experiment: Antiproliferative activity against human HSC2 cells assessed as reduction in cell viability at 10 uM measured after 48 hrs by MTT assay relative to control
Type: functional

Structure (SMILES) | Activity
Nc1ncnc2c1ncn2[C@@H]1O[C@H](CN(CC[C@H](N)C(=O)O)Cc2ccc3ccccc3c2)[C@@H](O)[C@H]1O | 20%

Target: T1, Nicotinamide N-methyltransferase (Homo sapiens, UniProt P40261)
T1 sequence (P40261 whole entry): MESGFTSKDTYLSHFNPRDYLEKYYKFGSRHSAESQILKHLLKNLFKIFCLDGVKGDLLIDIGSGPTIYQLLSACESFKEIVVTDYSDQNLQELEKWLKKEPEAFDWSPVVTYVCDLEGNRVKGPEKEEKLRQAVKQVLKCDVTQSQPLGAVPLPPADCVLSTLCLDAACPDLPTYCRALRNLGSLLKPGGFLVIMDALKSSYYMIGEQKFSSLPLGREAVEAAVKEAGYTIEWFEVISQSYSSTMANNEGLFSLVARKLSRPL
Experiment: Inhibition of wild-type human full length NNMT expressed in Escherichia coli BL21(DE3) cells assessed as reduction in 1-methyl-nicotinamide formation pre-incubated for 10 mins followed by AdoMet and nicotinamide addition measured after 30 mins by UHP-HILIC/Q-TOF-MS analysis

Structure (SMILES) | IC50
Nc1ncnc2c1ncn2[C@@H]1O[C@H](CSCC[C@H](N)C(=O)O)[C@@H](O)[C@H]1O [S-ADENOSYLHOMOCYSTEINE] | 35.3 µM
NC(=O)CCCCN(Cc1cccc(C(N)=O)c1)C[C@H]1O[C@@H](n2cnc3c(N)ncnc32)[C@H](O)[C@@H]1O | > 250 µM
NC(=O)CCCN(Cc1cccc(C(N)=O)c1)C[C@H]1O[C@@H](n2cnc3c(N)ncnc32)[C@H](O)[C@@H]1O | > 250 µM
CC(C)N(Cc1cccc(C(N)=O)c1)C[C@H]1O[C@@H](n2cnc3c(N)ncnc32)[C@H](O)[C@@H]1O | > 250 µM
NC(=O)CCCCN(Cc1cccc(C(=O)O)c1)C[C@H]1O[C@@H](n2cnc3c(N)ncnc32)[C@H](O)[C@@H]1O | > 250 µM
Nc1ncnc2c1ncn2[C@@H]1O[C@H](CN(CCC[C@H](N)C(=O)O)Cc2ccc3ccccc3c2)[C@@H](O)[C@H]1O | > 250 µM
Nc1ncnc2c1ncn2[C@@H]1O[C@H](CN(CCCC(=O)O)Cc2cccc(C(=O)O)c2)[C@@H](O)[C@H]1O | > 250 µM
NC(=O)CCCN(Cc1cccc(C(=O)O)c1)C[C@H]1O[C@@H](n2cnc3c(N)ncnc32)[C@H](O)[C@@H]1O | > 250 µM
NC(=O)c1cccc(CN(CCCCC(=O)O)C[C@H]2O[C@@H](n3cnc4c(N)ncnc43)[C@H](O)[C@@H]2O)c1 | > 250 µM
Nc1ncnc2c1ncn2[C@@H]1O[C@H](C[C@@H](N)CC[C@H](N)C(=O)O)[C@@H](O)[C@H]1O [SINEFUNGIN] | 12.5 µM
CC(C)N(Cc1ccc2ccccc2c1)C[C@H]1O[C@@H](n2cnc3c(N)ncnc32)[C@H](O)[C@@H]1O | 130 µM
NC(=O)c1cccc(CN(CCCC(=O)O)C[C@H]2O[C@@H](n3cnc4c(N)ncnc43)[C@H](O)[C@@H]2O)c1 | > 250 µM
Nc1ncnc2c1ncn2[C@@H]1O[C@H](CN(CCCC(=O)O)Cc2ccc3ccccc3c2)[C@@H](O)[C@H]1O | > 250 µM
COC(=O)c1cccc(CN(CCCC(=O)O)C[C@H]2O[C@@H](n3cnc4c(N)ncnc43)[C@H](O)[C@@H]2O)c1 | > 250 µM
CC(C)N(Cc1cccc(C(=O)O)c1)C[C@H]1O[C@@H](n2cnc3c(N)ncnc32)[C@H](O)[C@@H]1O | > 250 µM
COC(=O)c1cccc(CN(CCCCC(=O)O)C[C@H]2O[C@@H](n3cnc4c(N)ncnc43)[C@H](O)[C@@H]2O)c1 | > 250 µM
NC(=O)c1cccc(CCN(CCC[C@H](N)C(=O)O)C[C@H]2O[C@@H](n3cnc4c(N)ncnc43)[C@H](O)[C@@H]2O)c1 | 4.36 µM
Nc1ncnc2c1ncn2[C@@H]1O[C@H](CN(CCCCC(=O)O)Cc2ccc3ccccc3c2)[C@@H](O)[C@H]1O | > 250 µM
NC(=O)CCCN(Cc1ccc2ccccc2c1)C[C@H]1O[C@@H](n2cnc3c(N)ncnc32)[C@H](O)[C@@H]1O | 111 µM
COC(=O)c1cccc(CN(CCCC(N)=O)C[C@H]2O[C@@H](n3cnc4c(N)ncnc43)[C@H](O)[C@@H]2O)c1 | > 250 µM
COC(=O)c1cccc(CN(CCCCC(N)=O)C[C@H]2O[C@@H](n3cnc4c(N)ncnc43)[C@H](O)[C@@H]2O)c1 | > 250 µM
COC(=O)c1cccc(CN(C[C@H]2O[C@@H](n3cnc4c(N)ncnc43)[C@H](O)[C@@H]2O)C(C)C)c1 | > 250 µM
Nc1ncnc2c1ncn2[C@@H]1O[C@H](CN(CCCCC(=O)O)Cc2cccc(C(=O)O)c2)[C@@H](O)[C@H]1O | > 250 µM
